# Laboratory results: US20250296960A1, “PEPTIDE COMPOSITIONS AND METHODS OF USE THEREOF” (priority 2022, published 2025)
# Read-outs that look alike come from different tables or passages of the source. Numbered stars: 1 amine (or outer) side, 2 acyl side, 3 side chain; on linkers, the order of the positions; unused ones are H or OH. Square brackets hold non-standard residues; d marks the D form. Side chains are listed from the residue outwards. Peptide text beside a SMILES is read from it. * marks the point of attachment. Biotin = O=C1N[C@H]2[C@H](CS[C@H]2CCCCC(=O)*)N1; C18 diacid = O=C(O)CCCCCCCCCCCCCCCCC(=O)*; γGlu = O=C(O)[C@H](CCC(=O)[*:2])N[*:1]; AEEA = NCCOCCOCC(=O)O; Aib = CC(C)(N)C(=O)O
# Assays:
# human GLP-1R = target: T1, human GLP-1R (Homo sapiens, UniProt P43220); assay: cAMP assay (HitHunter cAMP) in GLP-1R-expressing CHO-K1 cells (GLP-1R+ cells); type: cell-based; details: Table 31
# T1 construct: host or cells: CHO-K1
# Outline: (§1)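 Luminescent cAMP read-out: after 30 min peptide stimulation at 37 °C in cAMP assay buffer, receptor-expressing CHO-K1 cells (seeded 7×10^3/well the night before) received antibody and detection reagents for 1 h, then Solution A for 3 h, at room temperature in the dark.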
# [1] = Body weight loss in high fat diet (HFD) mice, 2 weeks; type: in vivo; details: 20 nmol/kg s.c. Q2D
# Description: This study was conducted to confirm the body weight loss effect and select the peptides to be evaluated in high fat diet (HFD) treated mouse, which is widely used as experimental animal model in obesity and diabetes studies. SEQ ID NOs. The peptides were delivered at 0.02% PS80 in PBS and dosing volume was 10 mL/kg. Body weight changes, blood glucose, and food intake were monitored Q2D. Animals were fasted at least 4 hours prior to blood glucose measurement.
# [2] = In vitro enzymatic stability against FaSSIF/P (pancreatin in FaSSIF, pH 6.5); type: in vitro ADME; details: simulated gi fluid, pH 6.5, Half-life (min)
# Description: This study was conducted to determine the enzymatic stability of SEQ ID NOs. 77, 86, 87, 89, 90, and 91 after biotinylation in artificial intestinal environment. The test samples were prepared by mixing stock solutions of peptide and pancreatin dissolved in FaSSIF solution (pH 6.5) in a weight ratio of 25:1. The test samples were incubated at 37° C. for 120 min. The sampling from test samples was proceeded at the predetermined time points (10, 30, 60, and 120 min) and stopped by 10% TFA solution.
# (§2) Analytical HPLC was performed to determine the remaining amount on an ACQUITY Premier system (Waters, USA) with an ACQUITY CSH C18 column (Waters, USA) at 35° C. using 0.1% TFA in water and acetonitrile. The remaining amount was determined as a percentage of the peak area at the sampling time point relative to the peak area of the initial sample.
# For the stability against FaSSIF/P, the test samples were prepared by mixing stock solutions of peptide and pancreatin dissolved in FaSSIF solution (pH 6.5) in a weight ratio of 19:1. The test samples were incubated at 37° C. for 120 min. The sampling from test samples was proceeded at the predetermined time points (10, 30, 60, and 120 min) and stopped by 10% TFA solution.
# human GIPR = target: T2, human GIPR (Homo sapiens, UniProt P48546); assay: cAMP assay (HitHunter cAMP) in GIPR-expressing CHO-K1 cells (GIPR+ cells); type: cell-based; details: Table 31
# T2 construct: host or cells: CHO-K1
# T2 sequence (P48546 22-466): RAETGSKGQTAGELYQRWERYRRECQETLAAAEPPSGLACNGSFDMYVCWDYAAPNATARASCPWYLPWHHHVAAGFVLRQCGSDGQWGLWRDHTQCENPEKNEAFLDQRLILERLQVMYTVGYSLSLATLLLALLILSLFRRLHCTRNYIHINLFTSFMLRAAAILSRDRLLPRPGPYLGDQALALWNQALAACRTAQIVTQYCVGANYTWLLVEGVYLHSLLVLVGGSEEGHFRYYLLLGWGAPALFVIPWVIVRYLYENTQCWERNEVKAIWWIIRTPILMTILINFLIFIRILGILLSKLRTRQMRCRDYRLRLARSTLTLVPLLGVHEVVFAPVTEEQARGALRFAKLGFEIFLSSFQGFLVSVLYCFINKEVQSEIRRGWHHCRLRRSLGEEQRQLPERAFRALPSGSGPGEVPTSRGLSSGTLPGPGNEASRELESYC
# Outline: as §1
# human GCGR = target: T3, human GCGR (Homo sapiens, UniProt P47871); assay: cAMP assay (HitHunter cAMP) in GCGR-expressing CHO-K1 cells (GCGR+ cells); type: cell-based; details: Table 31
# T3 construct: host or cells: CHO-K1
# Outline: as §1
# [3] = type: in vitro ADME; details: pH 7.8
# Description: For the stability against trypsin, the test samples were prepared by mixing stock solutions of peptide and trypsin dissolved in 50 mM PBS (pH 7.8) containing 0.02% PS80 in a weight ratio of 10:1. The test samples were incubated at 37° C. for 180 min. The sampling from test samples was proceeded at the predetermined time points (10, 30, 60, 90, 120, and 180 min) and stopped by 10% TFA solution.
# as §2
# [4] = rat, in vivo, iv
# Description: This study was conducted to evaluate the PK profile of SEQ ID NOs. 77, 102, and 103 and compare the PK profile by the different lipidated structure of peptides in rat plasma by IV administration. SEQ ID NOs. The peptides were delivered at 0.02% PS80 in PBS and dosing volume was 2.5 mL/kg.
# The animals were not fasted prior to dosing. 0.2-0.4 mL of whole blood was taken from vein at each time point (0.167, 0.5, 1, 2, 4, 6, 8, 24, and 48 hr after administration) and transferred into the heparin coated tube.
# The resulting plasma of 0.1-0.2 mL obtained by centrifugation of the blood samples was transferred into the tube and stored at −70° C. until analysis. The concentrations of peptides in plasma were determined by LC-MS/MS analysis.
# [5] = Intestinal absorption / PK after intraduodenal administration of oral formulation in rats, serum LC-MS/MS; details: rat, in vivo
# Description: This study was conducted to evaluate the intestinal absorption of peptides following enteral administration of oral pharmaceutical formulations. The pharmaceutical formulation was administered in a form of suspensions by intraduodenal (ID) injection in rats. SEQ ID_87, 89 and 90 was accurately weighed and dissolved in 10 mM PBS containing polysorbate 80 (pH 7.4, vehicle I). The mixture was vortexed for 5 min to get a clear solution. Then, 2.5 mL of vehicle was added to the mixture and vortexed for 30 min to get homogenous opaque suspension. The composition of Vehicle II was sodium chenodeoxycholate, and propyl gallate in polysorbate 80 in PBS. The animals were not fasted prior to dosing. 0.2˜ 0.4 mL of whole blood was taken from vein at each time point (0, 0.167, 0.5, 1, 2, 4, 8, 24, and 48 hrs after IV or ID administration). The collected whole blood was incubated at room temperature for 20 min and tubes were centrifugated at 13,000 rpm for 10 min at 4° C. The resulting serum 0.1˜ 0.2 mL was transferred into the tube and stored at −70° C. until analysis. The concentrations of peptides in serum were determined by LC-MS/MS analysis. PK parameters were analyzed by non-compartmental analysis using Phoenix WinNonlin 5.0.1. software (Pharsight Corporation, Mountain View, CA, USA).
# T3 sequence (P47871 26-477): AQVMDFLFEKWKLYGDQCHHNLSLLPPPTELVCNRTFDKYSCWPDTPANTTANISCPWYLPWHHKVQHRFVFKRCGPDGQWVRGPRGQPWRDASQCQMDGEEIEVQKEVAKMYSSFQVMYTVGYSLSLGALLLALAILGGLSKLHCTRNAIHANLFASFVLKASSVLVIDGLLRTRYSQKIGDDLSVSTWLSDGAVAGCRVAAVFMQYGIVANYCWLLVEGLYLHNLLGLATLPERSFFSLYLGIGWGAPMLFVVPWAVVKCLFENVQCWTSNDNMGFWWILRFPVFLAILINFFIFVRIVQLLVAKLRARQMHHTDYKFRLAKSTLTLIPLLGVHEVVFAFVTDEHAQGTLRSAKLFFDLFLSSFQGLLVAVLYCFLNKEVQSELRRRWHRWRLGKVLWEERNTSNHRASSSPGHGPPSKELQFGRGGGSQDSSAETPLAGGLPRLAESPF
# T1 sequence (P43220 24-463): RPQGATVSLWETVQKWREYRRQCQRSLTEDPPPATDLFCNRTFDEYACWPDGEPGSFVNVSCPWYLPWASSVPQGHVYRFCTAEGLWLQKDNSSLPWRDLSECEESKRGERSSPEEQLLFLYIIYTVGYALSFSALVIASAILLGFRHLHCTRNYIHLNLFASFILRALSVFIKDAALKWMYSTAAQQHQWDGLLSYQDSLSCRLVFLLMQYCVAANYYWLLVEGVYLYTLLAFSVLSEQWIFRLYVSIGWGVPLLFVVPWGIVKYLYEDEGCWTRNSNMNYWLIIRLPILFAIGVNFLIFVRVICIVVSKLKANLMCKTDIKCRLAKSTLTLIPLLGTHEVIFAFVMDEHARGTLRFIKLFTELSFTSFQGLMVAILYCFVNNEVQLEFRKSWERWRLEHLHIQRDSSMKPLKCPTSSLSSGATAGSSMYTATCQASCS
SMILES,"Ratio vs. GLP-1R, GLP-1R (human GLP-1R)","Relative % to native ligand, GLP-1R (human GLP-1R)","body weight loss effect compared to SEQ ID NO. 77, in words [1]",half-life [2],"Ratio vs. GLP-1R, GIPR (human GIPR)","Relative % to native ligand, GIPR (human GIPR)","Ratio vs. GLP-1R, GCGR (human GCGR)","Relative % to native ligand, GCGR (human GCGR)",half-life [3],"PK parameter values (half-life and AUCinf/dose), comparison in words [4]",AUCinf/dose ([4]; 100 nmol/kg),half-life ([4]; 100 nmol/kg),half-life ([2]; FaSSIF/P),AUC(0-inf) [5],Cmax [5],half-life [5],time at which Cmax was reached [5]
CSCC[C@H](NC(=O)[C@H](CCCCNC(=O)CCCC[C@@H]1SC[C@@H]2NC(=O)N[C@@H]21)NC(=O)[C@H](CC(=O)O)NC(=O)[C@H](CC(C)C)NC(=O)[C@H](CC(C)C)NC(=O)[C@H](CCCCNC(=O)COCCOCCNC(=O)COCCOCCNC(=O)CC[C@H](NC(=O)CCCCCCCCCCCCCCCCC(=O)O)C(=O)O)NC(=O)[C@H](CO)NC(=O)[C@H](Cc1ccc(O)cc1)NC(=O)[C@H](CC(=O)O)NC(=O)[C@H](CO)NC(=O)[C@@H](NC(=O)[C@H](Cc1ccccc1)NC(=O)[C@@H](NC(=O)CNC(=O)[C@H](CCC(N)=O)NC(=O)C(C)(C)NC(=O)[C@@H](N)Cc1ccc(O)cc1)[C@@H](C)O)[C@@H](C)O)C(=O)N[C@@H](CCSC)C(=O)N[C@@H](CCC(N)=O)C(=O)N[C@@H](CCCNC(=N)N)C(=O)N[C@@H](CC(=O)O)C(=O)N[C@@H](Cc1ccccc1)C(=O)N[C@H](C(=O)N[C@@H](CCC(N)=O)C(=O)N[C@@H](Cc1c[nH]c2ccccc12)C(=O)N[C@@H](CC(C)C)C(=O)N[C@@H](CC(C)C)C(=O)N[C@@H](CCC(=O)O)C(=O)NCC(=O)NCC(=O)N1CCC[C@H]1C(=O)N[C@@H](CO)C(=O)N[C@@H](CO)C(=O)NCC(=O)N[C@@H](C)C(=O)N1CCC[C@H]1C(=O)N1CCC[C@H]1C(=O)N1CCC[C@H]1C(=O)N[C@@H](CO)C(N)=O)C(C)C [compound 86] (H-Y[Aib]QGTFTSDYSK([AEEA-AEEA-γGlu-C18 diacid])LLDK(Biotin)MMQRDFVQWLLEGGPSSGAPPPS-NH2; N-terminus and C-terminus assumed),100,90%,inferior,25.4 min,639,575%,157,142%,,,,,,,,,
"CC[C@H](C)[C@H](NC(=O)[C@H](CC(C)C)NC(=O)[C@H](Cc1c[nH]c2ccccc12)NC(=O)[C@H](CC(C)C)NC(=O)[C@@H](NC(=O)[C@H](Cc1ccccc1)NC(=O)[C@H](CC(=O)O)NC(=O)CNC(=O)[C@H](C)NC(=O)[C@H](Cc1c[nH]c2ccccc12)NC(=O)[C@@H]1CCCN1C(=O)CNC(=O)[C@H](CC(=O)O)NC(=O)[C@H](CC(C)C)NC(=O)[C@H](Cc1ccc(O)cc1)NC(=O)[C@H](Cc1c[nH]c2ccccc12)NC(=O)[C@H](CO)NC(=O)[C@H](CCCCN)NC(=O)[C@H](CC(=O)O)NC(=O)[C@H](CO)NC(=O)[C@@H](NC(=O)[C@H](Cc1ccccc1)NC(=O)[C@@H](NC(=O)CNC(=O)[C@H](CCC(N)=O)NC(=O)C(C)(C)NC(=O)[C@@H](N)Cc1c[nH]cn1)[C@@H](C)O)[C@@H](C)O)C(C)C)C(=O)N[C@@H](CCC(=O)O)C(=O)NCC(=O)NCC(=O)N1CCC[C@H]1C(=O)N[C@@H](CO)C(=O)N[C@@H](CO)C(=O)NCC(=O)N[C@@H](C)C(=O)N1CCC[C@H]1C(=O)N1CCC[C@H]1C(=O)N1CCC[C@H]1C(=O)N[C@@H](CO)C(=O)N[C@@H](CS)C(=O)O [compound 77, HAibQGT FTSDKSWYLDGPWAGDFVLWLIEGGPSSGAPPPSC] (H-H[Aib]QGTFTSDKSWYLDGPWAGDFVLWLIEGGPSSGAPPPSC-OH; N-terminus and C-terminus assumed)",,,,39.4 min,,,,,92.5 min,significantly low,156.76 ± 27.16 kg·h/L,427 ± 24 min,36.9 min,,,,
CSCC[C@H](NC(=O)[C@H](CCCCNC(=O)CCCC[C@@H]1SC[C@@H]2NC(=O)N[C@@H]21)NC(=O)[C@H](Cc1ccc(O)cc1)NC(=O)[C@H](CC(=O)O)NC(=O)[C@H](CC(C)C)NC(=O)[C@H](CC(C)C)NC(=O)[C@H](CCCCNC(=O)COCCOCCNC(=O)COCCOCCNC(=O)CC[C@H](NC(=O)CCCCCCCCCCCCCCCCC(=O)O)C(=O)O)NC(=O)[C@H](CO)NC(=O)[C@H](Cc1ccc(O)cc1)NC(=O)[C@H](CC(=O)O)NC(=O)[C@H](CO)NC(=O)[C@@H](NC(=O)[C@H](Cc1ccccc1)NC(=O)[C@@H](NC(=O)CNC(=O)[C@H](CCC(N)=O)NC(=O)C(C)(C)NC(=O)[C@@H](N)Cc1ccc(O)cc1)[C@@H](C)O)[C@@H](C)O)C(=O)N[C@@H](CCC(N)=O)C(=O)N[C@@H](CCCNC(=N)N)C(=O)N[C@@H](CC(=O)O)C(=O)N[C@@H](Cc1ccccc1)C(=O)N[C@H](C(=O)N[C@@H](CCC(N)=O)C(=O)N[C@@H](Cc1c[nH]c2ccccc12)C(=O)N[C@@H](CC(C)C)C(=O)N[C@@H](CC(C)C)C(=O)N[C@@H](CCC(=O)O)C(=O)NCC(=O)NCC(=O)N1CCC[C@H]1C(=O)N[C@@H](CO)C(=O)N[C@@H](CO)C(=O)NCC(=O)N[C@@H](C)C(=O)N1CCC[C@H]1C(=O)N1CCC[C@H]1C(=O)N1CCC[C@H]1C(=O)N[C@@H](CO)C(N)=O)C(C)C [compound 87] (H-Y[Aib]QGTFTSDYSK([AEEA-AEEA-γGlu-C18 diacid])LLDYK(Biotin)MQRDFVQWLLEGGPSSGAPPPS-NH2; N-terminus and C-terminus assumed),100,110%,inferior,16.4 min,281,308%,60,66%,,,,,,1860 ng·h/mL,290 ng/mL,370 min,0.25 h
